Measured values reported in ChEMBL document CHEMBL1201862, “PubChem BioAssay data set” (2004).
Values belong to the compound of their own block, whether it stands above or below them. Active and inactive are the calls of the source.

Tests used:
[1] = target: T1, Small ubiquitin-related modifier 1 (Homo sapiens, UniProt P63165); assay: inhibitors of SUMO1 peptide binding, dose response, biochemical, fluorescence polarization, uHTS hits (AID 624382); type: functional; settings: read-out: IC50_Mean
T1 sequence (P63165 whole entry): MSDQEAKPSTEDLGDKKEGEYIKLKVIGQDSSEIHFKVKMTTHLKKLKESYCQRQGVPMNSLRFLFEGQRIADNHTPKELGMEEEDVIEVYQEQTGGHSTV

ORF 73 = target: T2, ORF 73 (Human herpesvirus 8, UniProt O40947); assay: inhibitors of C-LANA binding to LBS DNA, dose response, biochemical, fluorescence polarization, cherry-picked samples (AID 504725); design: species or system Human gammaherpesvirus 8;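 also: fluorescence polarization of a labeled DNA duplex reporting LANA DNA binding; potency is for inhibitors that block LANA binding to the DNA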
T2 sequence (O40947 whole entry): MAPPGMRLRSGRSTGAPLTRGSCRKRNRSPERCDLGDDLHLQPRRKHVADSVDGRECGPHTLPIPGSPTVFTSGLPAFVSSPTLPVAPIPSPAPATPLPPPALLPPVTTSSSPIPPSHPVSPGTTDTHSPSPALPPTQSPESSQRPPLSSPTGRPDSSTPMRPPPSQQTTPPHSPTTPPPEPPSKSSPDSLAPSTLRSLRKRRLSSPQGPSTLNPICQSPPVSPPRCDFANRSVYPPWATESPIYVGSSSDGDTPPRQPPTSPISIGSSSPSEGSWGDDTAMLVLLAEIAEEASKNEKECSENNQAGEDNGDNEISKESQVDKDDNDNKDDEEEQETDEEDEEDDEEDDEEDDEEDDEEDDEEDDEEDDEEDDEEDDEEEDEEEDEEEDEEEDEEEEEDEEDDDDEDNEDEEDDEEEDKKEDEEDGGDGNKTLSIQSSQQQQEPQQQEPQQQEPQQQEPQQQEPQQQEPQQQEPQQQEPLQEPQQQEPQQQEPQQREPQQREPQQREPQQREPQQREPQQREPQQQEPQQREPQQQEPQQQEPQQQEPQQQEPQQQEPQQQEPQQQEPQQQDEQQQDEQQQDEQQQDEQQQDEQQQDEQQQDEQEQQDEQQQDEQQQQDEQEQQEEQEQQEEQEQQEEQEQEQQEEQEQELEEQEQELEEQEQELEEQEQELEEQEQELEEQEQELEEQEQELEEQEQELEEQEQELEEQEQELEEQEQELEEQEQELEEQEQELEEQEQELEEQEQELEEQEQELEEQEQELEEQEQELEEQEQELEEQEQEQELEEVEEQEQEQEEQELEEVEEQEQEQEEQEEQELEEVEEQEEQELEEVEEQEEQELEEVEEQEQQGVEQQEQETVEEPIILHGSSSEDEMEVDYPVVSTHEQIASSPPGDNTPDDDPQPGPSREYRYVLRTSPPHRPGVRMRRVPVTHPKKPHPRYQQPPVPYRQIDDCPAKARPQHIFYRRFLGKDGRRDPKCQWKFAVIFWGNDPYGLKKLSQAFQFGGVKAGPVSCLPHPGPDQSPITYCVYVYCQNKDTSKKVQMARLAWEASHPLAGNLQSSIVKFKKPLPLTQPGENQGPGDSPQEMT

[2] = target: T1, Small ubiquitin-related modifier 1; assay: inhibitors of SUMO1 partner interactions, dose response, biochemical, FRET (AID 624383); type: functional; settings: read-out: IC50_Mean
[3] = target: T3, RNA-binding protein pos-1 (Caenorhabditis elegans, UniProt G5EF15); assay: inhibitors of POS-1/mex-3 RNA binding, dose response, biochemical, fluorescence polarization (AID 1964);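 also: purified POS-1 fused to maltose binding protein made in E. coli; potency of compounds blocking POS-1 binding to fluorescent RNA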
T3 sequence (G5EF15 whole entry): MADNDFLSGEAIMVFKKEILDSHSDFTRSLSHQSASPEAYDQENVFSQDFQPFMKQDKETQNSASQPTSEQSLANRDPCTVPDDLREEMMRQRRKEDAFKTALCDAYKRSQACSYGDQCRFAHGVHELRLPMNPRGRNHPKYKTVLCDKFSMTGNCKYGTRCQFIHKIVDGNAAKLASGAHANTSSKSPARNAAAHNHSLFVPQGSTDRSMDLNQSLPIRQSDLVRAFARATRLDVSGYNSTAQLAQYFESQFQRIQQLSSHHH

Genome polyprotein = Genome polyprotein (dengue virus type 2, UniProt P29990); assay: Dengue-2 NS5 methyltransferase inhibitors, primary screen, biochemical, confirmation dose response (AID 588689); type: functional
Phospholipase A2 = Phospholipase A2 (Homo sapiens, UniProt P04054); type: functional;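 also: confirmatory dose-response counterscreen on phospholipase A2, testing hits that came from an ultra-high-throughput screen for ATG4B inhibitors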
[4] = target: T4, Zinc finger protein mex-5 (Caenorhabditis elegans, UniProt Q9XUB2); assay: MEX-5/TCR-2 RNA interaction inhibitors, dose response, biochemical, C. elegans, fluorescence polarization (AID 1960)
T4 sequence (Q9XUB2 whole entry): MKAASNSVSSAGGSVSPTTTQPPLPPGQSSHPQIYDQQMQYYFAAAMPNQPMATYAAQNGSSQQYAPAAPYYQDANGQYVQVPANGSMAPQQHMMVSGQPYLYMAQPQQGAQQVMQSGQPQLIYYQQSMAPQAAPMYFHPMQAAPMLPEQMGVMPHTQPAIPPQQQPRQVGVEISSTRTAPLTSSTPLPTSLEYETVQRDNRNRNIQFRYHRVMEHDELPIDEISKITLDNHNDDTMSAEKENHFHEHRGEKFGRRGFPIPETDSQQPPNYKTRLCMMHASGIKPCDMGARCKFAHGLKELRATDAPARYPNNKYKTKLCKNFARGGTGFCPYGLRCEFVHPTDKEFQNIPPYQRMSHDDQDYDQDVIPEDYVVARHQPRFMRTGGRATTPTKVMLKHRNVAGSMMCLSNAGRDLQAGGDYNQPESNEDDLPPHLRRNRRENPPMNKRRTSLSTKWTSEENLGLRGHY

Cysteine protease ATG4B = target: T5, Cysteine protease ATG4B (Homo sapiens, UniProt Q9Y4P1); type: functional;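 also: Fluorescence-based dose-response confirmation assay measuring inhibition of ATG4B activity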
T5 sequence (Q9Y4P1 whole entry): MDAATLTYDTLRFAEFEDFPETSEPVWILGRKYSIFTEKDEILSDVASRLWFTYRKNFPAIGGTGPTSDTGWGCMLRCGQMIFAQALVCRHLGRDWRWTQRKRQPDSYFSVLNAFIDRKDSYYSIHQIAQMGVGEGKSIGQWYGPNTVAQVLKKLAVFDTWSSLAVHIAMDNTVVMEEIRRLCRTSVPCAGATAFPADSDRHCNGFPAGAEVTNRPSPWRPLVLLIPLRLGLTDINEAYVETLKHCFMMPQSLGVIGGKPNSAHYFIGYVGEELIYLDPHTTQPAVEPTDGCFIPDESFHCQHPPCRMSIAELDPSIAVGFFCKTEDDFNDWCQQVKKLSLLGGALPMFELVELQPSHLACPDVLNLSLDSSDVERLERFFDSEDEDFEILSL

Prothrombin = Prothrombin (Bos taurus, UniProt P00735); assay: thrombin inhibition, dose response, biochemical, fluorescence polarization, uHTS hits (AID 602369); type: functional
[5] = target: 72 kDa type IV collagenase (Homo sapiens, UniProt P08253); assay: Dose Response validation of uHTS RPN11 inhibitor hits using a MMP-2 Fluorescence assay.; type: functional
Large T antigen = Large T antigen (Simian virus 40, UniProt P03070); type: functional, Betapolyomavirus macacae;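 also: Confirmatory-stage PubChem screen for compounds that inhibit SV40 T antigen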
[6] = target: 26S proteasome non-ATPase regulatory subunit 14 (Homo sapiens, UniProt O00487); assay: inhibition of proteasome subunit RPN11 – biochemical, fluorescence polarization, uHTS hits, confirmation (AID 602368); type: functional
[7] = target: DNA (cytosine-5)-methyltransferase 1 (Homo sapiens, UniProt P26358); assay: DNMT1 methyltransferase inhibitors, confirmation, biochemical, fluorescent molecular beacon (AID 602386); type: functional
[8] = nonselective inhibitors of cellular cAMP signaling, dose response, counter-screen for MC4R biased antagonist project, cell-based, TR-FRET cAMP detection (AID 602305); type: functional;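 also: U2OS cells stimulated with forskolin near its EC80 as the cAMP inducer; potency is for inhibition of forskolin-stimulated cAMP signaling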
Melanocortin receptor 4 = Melanocortin receptor 4 (Homo sapiens, UniProt P32245); assay: MC4R antagonist potency on cAMP, dose response, cell-based, TR-FRET, biased antagonists (AID 602298); type: functional;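 also: antagonist potency against agonist-stimulated cAMP production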
Chain of Melanocortin receptor 4 (P32245 whole entry, the tested form may be a part): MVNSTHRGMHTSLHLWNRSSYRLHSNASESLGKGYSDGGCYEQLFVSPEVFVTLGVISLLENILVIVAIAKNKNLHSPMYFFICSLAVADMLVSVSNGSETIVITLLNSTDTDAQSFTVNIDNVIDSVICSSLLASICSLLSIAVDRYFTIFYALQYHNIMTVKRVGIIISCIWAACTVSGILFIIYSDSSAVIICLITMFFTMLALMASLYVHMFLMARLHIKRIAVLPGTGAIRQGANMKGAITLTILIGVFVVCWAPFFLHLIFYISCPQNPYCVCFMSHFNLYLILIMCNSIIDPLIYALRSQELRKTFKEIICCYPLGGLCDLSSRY

[9] = target: Hepatocyte nuclear factor 4-alpha (Homo sapiens, UniProt P41235); type: functional, cell-based;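 also: biochemical luminescence-based dose-response counterscreen measuring inhibition of HNF4 dimerization, run alongside a screen for blockers of ABHD5–perilipin-5 interaction; split luciferase complementation of HNF4 fusion proteins in cell lysate measuring dimerization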
Chain of Hepatocyte nuclear factor 4-alpha (P41235 whole entry, the tested form may be a part): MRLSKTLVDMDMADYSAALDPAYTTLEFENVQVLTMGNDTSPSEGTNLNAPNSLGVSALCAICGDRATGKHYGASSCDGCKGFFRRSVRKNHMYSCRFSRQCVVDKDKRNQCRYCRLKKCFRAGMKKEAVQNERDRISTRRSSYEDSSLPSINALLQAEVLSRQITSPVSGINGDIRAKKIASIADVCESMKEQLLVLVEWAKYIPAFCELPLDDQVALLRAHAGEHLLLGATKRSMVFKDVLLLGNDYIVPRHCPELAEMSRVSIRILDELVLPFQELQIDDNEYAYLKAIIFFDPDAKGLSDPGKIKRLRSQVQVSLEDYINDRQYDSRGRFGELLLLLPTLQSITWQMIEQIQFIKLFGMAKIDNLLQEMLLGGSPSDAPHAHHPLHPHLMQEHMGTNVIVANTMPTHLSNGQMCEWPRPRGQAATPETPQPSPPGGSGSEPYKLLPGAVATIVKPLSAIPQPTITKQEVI

Paired box protein Pax-8 = Paired box protein Pax-8 (Homo sapiens, UniProt Q06710); assay: inhibitors of PAX8-driven TPO luciferase reporter, dose response, RMG-I cells, cherry-pick (AID 687027); type: functional, cell-based;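 also: luciferase reporter driven by Pax8 target thyroperoxidase promoter measured by SteadyGlo luminescence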
[10] = target: T6, Sentrin-specific protease 1 (Homo sapiens, UniProt Q9P0U3); assay: Dose response confirmation of small molecule inhibitors of the catalytic domain of the SUMO protease, SENP1 in a FRET assay.; type: functional; settings: read-out: IC50_Mean
T6 sequence (Q9P0U3 whole entry, the tested form may be a part): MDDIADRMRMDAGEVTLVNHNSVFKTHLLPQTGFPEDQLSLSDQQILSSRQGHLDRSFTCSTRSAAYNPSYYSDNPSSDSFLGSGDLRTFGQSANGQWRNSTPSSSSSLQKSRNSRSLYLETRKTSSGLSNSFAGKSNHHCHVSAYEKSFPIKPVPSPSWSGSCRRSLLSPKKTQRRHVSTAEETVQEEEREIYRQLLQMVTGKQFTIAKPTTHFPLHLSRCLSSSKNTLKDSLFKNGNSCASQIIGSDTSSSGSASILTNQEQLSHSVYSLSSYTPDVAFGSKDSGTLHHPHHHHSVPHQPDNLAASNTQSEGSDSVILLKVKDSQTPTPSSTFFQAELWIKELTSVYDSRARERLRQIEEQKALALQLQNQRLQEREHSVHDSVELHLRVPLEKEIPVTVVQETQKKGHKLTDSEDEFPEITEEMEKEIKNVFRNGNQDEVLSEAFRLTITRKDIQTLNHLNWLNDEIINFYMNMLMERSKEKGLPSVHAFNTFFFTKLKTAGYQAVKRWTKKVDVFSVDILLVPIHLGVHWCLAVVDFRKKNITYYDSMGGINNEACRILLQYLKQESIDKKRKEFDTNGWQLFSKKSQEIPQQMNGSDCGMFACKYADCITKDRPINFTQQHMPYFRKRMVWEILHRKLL

[11] = target: T6, Sentrin-specific protease 1; assay: potency of human SENP1 inhibitors, dose response, biochemical, kinetic FRET (AID 651697); type: functional; settings: read-out: IC50_Mean
[12] = target: Tyrosine-protein kinase JAK3 (Homo sapiens, UniProt P52333); type: functional
Chain of Tyrosine-protein kinase JAK3 (P52333 whole entry): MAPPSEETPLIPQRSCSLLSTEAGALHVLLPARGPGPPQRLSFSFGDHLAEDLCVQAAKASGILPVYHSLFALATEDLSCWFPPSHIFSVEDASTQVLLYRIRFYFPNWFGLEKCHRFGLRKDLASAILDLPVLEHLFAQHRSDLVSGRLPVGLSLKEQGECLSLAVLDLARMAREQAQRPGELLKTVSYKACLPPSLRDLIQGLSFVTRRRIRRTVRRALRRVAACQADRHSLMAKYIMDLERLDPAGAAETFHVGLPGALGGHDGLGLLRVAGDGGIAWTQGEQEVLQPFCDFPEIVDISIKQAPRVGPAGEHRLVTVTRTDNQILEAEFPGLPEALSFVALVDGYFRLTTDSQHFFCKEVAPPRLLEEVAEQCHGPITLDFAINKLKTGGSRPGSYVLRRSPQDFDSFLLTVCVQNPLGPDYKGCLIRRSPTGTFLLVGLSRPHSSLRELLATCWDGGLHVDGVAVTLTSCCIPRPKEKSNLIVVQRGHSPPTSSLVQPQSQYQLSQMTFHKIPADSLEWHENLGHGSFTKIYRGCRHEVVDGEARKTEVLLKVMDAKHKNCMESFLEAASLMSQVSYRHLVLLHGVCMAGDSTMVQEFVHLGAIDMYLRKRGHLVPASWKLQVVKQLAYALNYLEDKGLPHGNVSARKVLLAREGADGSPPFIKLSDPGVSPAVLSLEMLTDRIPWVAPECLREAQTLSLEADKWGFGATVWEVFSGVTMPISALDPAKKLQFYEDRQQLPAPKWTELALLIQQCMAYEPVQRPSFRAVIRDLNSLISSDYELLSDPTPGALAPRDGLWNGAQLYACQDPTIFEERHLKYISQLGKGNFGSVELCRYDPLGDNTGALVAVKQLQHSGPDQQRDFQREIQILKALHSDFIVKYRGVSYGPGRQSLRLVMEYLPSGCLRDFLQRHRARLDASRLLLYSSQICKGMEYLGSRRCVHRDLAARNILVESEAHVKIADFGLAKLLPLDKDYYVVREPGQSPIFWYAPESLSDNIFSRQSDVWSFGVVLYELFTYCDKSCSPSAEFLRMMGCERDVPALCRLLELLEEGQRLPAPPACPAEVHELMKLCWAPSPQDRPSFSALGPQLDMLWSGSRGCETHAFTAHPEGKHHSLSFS

[13] = target: ALK tyrosine kinase receptor (Homo sapiens, UniProt Q9UM73); type: functional;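 also: ALK tested as one member of a kinase panel screen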
Aurora kinase A = Aurora kinase A (Homo sapiens, UniProt O14965); type: functional;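 also: value from the Navigating the Kinome kinase panel profiling, panel entry STK6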
Chain of Aurora kinase A (O14965 whole entry): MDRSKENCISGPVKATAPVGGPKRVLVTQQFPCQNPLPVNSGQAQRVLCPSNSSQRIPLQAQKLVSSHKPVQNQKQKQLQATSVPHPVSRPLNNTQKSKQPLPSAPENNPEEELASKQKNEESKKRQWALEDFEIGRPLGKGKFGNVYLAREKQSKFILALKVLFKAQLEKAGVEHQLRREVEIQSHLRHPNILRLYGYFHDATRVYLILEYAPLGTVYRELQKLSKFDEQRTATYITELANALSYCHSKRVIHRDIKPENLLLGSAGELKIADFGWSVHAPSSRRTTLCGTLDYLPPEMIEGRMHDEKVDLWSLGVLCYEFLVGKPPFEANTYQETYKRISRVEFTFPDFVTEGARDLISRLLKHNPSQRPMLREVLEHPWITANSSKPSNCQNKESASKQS

[14] = target: T7, ATP-dependent translocase ABCB1 (Homo sapiens, UniProt P08183); assay: ABCB1 efflux inhibitor potency, dose response, Jurkat-DNR cells, JC-1, flow cytometry, set 2 (AID 504569); type: functional; settings: read-out: EC50_MICROM_;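 also: potency of pump inhibitors that raise cellular JC-1 green fluorescence up to the nicardipine level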
T7 sequence (P08183 whole entry): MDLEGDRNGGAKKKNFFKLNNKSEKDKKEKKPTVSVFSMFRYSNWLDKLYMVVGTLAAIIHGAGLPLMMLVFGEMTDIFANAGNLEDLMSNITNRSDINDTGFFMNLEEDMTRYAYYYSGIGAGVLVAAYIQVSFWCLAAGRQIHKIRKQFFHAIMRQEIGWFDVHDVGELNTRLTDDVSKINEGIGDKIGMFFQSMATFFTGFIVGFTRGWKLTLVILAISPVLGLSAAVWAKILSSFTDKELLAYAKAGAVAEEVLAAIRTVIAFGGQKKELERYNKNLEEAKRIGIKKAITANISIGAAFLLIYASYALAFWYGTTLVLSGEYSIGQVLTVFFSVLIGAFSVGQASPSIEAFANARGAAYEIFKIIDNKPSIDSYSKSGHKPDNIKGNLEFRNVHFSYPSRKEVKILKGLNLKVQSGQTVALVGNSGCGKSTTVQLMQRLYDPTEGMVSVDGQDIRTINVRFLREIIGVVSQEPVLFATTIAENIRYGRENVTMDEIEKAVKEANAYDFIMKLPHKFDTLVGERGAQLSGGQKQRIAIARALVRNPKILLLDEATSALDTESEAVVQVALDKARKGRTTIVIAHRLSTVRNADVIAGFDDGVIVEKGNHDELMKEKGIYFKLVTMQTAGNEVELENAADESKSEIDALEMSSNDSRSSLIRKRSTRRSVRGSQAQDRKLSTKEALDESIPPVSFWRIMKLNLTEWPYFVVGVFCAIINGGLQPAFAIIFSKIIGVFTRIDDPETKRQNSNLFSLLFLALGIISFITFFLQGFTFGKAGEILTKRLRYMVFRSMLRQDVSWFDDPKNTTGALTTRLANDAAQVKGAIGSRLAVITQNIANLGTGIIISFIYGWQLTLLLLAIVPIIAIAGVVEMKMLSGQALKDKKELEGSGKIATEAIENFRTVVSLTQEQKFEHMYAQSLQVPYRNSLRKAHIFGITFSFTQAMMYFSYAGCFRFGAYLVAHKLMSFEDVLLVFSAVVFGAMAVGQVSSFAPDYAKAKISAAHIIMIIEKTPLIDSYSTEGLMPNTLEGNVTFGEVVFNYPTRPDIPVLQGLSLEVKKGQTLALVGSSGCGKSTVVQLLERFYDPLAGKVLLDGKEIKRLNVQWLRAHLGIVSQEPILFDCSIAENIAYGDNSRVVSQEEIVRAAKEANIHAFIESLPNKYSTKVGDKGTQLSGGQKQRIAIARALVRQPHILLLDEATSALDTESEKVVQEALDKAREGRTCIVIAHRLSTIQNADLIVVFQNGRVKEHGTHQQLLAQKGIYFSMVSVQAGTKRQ

[15] = target: T7, ATP-dependent translocase ABCB1; assay: ABCG2 efflux pump inhibitor potency, dose response, Ig-MXP3 cells, JC-1, flow cytometry, set 2 (AID 504566); type: functional; settings: read-out: EC50_MICROM_;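 also: flow cytometry median green fluorescence of retained JC-1 dye; potency of efflux pump inhibition measured as rising substrate retention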
[16] = target: Mitochondrial peptide methionine sulfoxide reductase (Bos taurus, UniProt P54149); type: functional;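 also: absorbance read-out, biochemical high-throughput dose-response screen for MsrA inhibitors, confirmatory; recombinant bovine MsrA coupled to E. coli TrxB with NADPH and selenocystamine; potency is for inhibitors of MsrA activity on DMSO substrate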
[17] = target: G protein-coupled receptor kinase 5 (Homo sapiens, UniProt P34947); assay: Navigating the Kinome. Panel member name: GPRK5; type: functional
Chain of G protein-coupled receptor kinase 5 (P34947 whole entry): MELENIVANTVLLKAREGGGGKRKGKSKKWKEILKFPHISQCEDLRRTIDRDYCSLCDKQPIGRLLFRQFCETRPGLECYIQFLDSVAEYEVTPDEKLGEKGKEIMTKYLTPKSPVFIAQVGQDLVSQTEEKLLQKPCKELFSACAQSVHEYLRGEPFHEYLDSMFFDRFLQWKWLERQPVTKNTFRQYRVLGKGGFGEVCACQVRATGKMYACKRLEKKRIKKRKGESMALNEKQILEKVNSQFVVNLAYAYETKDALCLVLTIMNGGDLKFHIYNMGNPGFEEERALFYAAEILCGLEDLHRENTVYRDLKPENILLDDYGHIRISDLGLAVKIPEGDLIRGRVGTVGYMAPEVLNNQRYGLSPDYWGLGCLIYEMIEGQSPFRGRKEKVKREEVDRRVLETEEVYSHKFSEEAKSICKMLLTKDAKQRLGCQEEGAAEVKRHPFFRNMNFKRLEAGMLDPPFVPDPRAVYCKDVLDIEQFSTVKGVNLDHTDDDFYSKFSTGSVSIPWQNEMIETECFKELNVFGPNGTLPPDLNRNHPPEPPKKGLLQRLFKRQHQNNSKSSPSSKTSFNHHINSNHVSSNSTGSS

[18] = target: Dual specificity protein kinase CLK2 (Homo sapiens, UniProt P49760); type: functional

Compound: O=c1[nH]c(=S)[nH]c2c1C(c1ccc(Br)cc1)c1c([nH]c(=S)[nH]c1=O)O2
IC50 [1]: > 66.6 µM (inactive) | AC50 (ORF 73): 281 µM (active) | IC50 [2]: 10.3 µM (active) | EC50 [3]: 4.86 µM (inconclusive) | IC50 (Genome polyprotein): 73.7 µM (active) | IC50 (Phospholipase A2): 29.2 µM (inactive) | EC50 [4]: 4.53 µM (active) | IC50 (Cysteine protease ATG4B): 2.96 µM (active) | IC50 (Prothrombin): 20.8 µM (active) | IC50 [5]: 0.0169 µM (active) | IC50 (Large T antigen): 21.4 µM (active) | IC50 [6]: 14.5 µM (active)

Compound: CCOC(=O)C(NC(=O)CC(C)C)(Nc1sc2c(c1C(N)=O)CCCC2)C(F)(F)F (configuration not stated)
IC50 [7]: > 99 µM (inactive)

Compound: COC(=O)c1sc(N)c(C(=O)OC)c1COC(=O)CNS(=O)(=O)c1ccc(C)c(C)c1
IC50 [8]: > 64.6 µM (inactive) | IC50 (Melanocortin receptor 4): > 64.6 µM (inactive)

Compound: Nc1ccc2c(c1)-c1ccc(F)cc1C2=O
IC50 [10]: 19.4 µM (active) | IC50 [11]: 76.9 µM (inactive)

Compound: C/C(=N\Nc1ccc(C(F)(F)F)cc1[N+](=O)[O-])C1CC1
IC50 [16]: 155 µM (inactive)

Results, then the compound that gave them:

IC50 [9]: 32.1 µM (inactive) | AC50 (Paired box protein Pax-8): 3.91 µM (active)
Compound: C#CCN(C[C@@H]1[C@@H](OC(=O)NCc2ccc(OC)c(OC)c2)[C@@H](OC(=O)NCc2ccc(OC)c(OC)c2)Cn2c(=O)ccc(=O)n21)S(=O)(=O)c1ccc(C)cc1

Ki [12]: 5.01 µM (active)
Compound: CC(C)CC(NC(=O)c1cccc(-n2nc(C(C)(C)C)cc2NC(=O)Nc2cccc3ccccc23)c1)C(N)=O (configuration not stated)

Ki [13]: 0.398 µM (active) | Ki (Aurora kinase A): 0.0501 µM (active)
Compound: Cc1cccc(NC(=O)Nc2ccc(-c3csc4c(-c5ccc(NC(=O)CCCN(C)C)cc5)cnc(N)c34)cc2)c1

EC50 [14]: 3.16 µM (active) | EC50 [15]: 2.66 µM (active)
Compound: O=C(c1cccc(Cl)c1)N1CCN(c2cc(-c3ccccc3)nc3cc(-c4cccc(Cl)c4)nn23)CC1

Ki [17]: > 3.98 µM (inactive) | Ki [18]: > 2 µM (inactive)
Compound: COc1cc2c(Nc3ccc(Br)cc3F)ncnc2cc1OCC1CCN(C)CC1 [VANDETANIB]
